Reference: patent US9422240B2, “Partially saturated nitrogen-containing heterocyclic compound” (TAISHO PHARMACEUTICAL CO., LTD, priority 2012, dated 2016)

Experiments:
human PHD2 [1] = target: T1, human PHD2 (Homo sapiens (Human), UniProt Q9GZT9); test: Test 2: human PHD2 inhibitory activity, fluorescence polarization assay of HIF-1α peptide proline hydroxylation; type: biochemical; conditions: for inhibition at 1 µM: test compound's concentration 1 μM, Test 2, fluorescence polarization assay, read-out: Percent inhibition (% at 1 μM); for IC50: human PHD2, fluorescence polarization assay, 20-min incubation at 30° C.
T1 sequence (Q9GZT9 whole entry): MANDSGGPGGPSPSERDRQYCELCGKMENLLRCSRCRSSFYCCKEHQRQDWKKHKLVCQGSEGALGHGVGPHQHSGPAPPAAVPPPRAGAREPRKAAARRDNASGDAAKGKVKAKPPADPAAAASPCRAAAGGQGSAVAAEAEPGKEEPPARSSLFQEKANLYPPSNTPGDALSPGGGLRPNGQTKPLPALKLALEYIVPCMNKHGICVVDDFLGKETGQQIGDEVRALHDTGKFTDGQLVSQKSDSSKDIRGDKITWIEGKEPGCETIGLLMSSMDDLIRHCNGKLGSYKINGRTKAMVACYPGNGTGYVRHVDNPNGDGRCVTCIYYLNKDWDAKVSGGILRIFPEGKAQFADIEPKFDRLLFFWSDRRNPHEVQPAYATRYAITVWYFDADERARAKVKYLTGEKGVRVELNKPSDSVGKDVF
In short: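 Enzyme from lysate of cells expressing human PHD2 (NM_022051), 40 ng/well, added to compound and 19-residue HIF-1α peptide substrate; 20 min at 30° C., EDTA quench. Prolyl hydroxylation detected by HIF-OH antibody binding via fluorescence polarization; inhibition relative to compound-free wells.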

human PHD2 [2] = target: T1, human PHD2; test: Test 1: human PHD2 inhibitory activity, [14C]-2-oxoglutarate to [14C]-succinic acid radiometric assay with HIF-1α peptide; type: biochemical; conditions: test compound's concentration 1 μM; Test 1, [14C]-2-oxoglutarate radiometric assay; read-out: Percent inhibition (% at 1 μM)
Description: (1) Expression and Preparation of Human PHD2
Human PHD2 was expressed in insect cells (HighFive cells). A registered sequence of human PHD2 (NM_022051) was introduced into the pFastBacl vector (Invitrogen), and the sequence was verified. The vector was introduced into Sf9 insect cells (Invitrogen) to acquire human PHD2 baculovirus. HighFive insect cells (Invitrogen) were infected with this recombinant virus and cultured at 27° C. for 72 hours; thereafter, a cell lysis solution containing various protease inhibitors was added and the cells were disrupted to form a suspension. The suspension of disrupted cells was centrifuged at 4° C. and 100,000×g for 30 minutes and the supernatant was recovered as a cell lysate.
(2) Measurement of Human PHD2 Inhibitory Activity
The activity of human PHD2 enzyme was measured with a substrate which is a 19-residue partial peptide based on the sequence of HIF-1α. Specifically, the conversion of 2-oxoglutarate to succinic acid which would occur simultaneously with the hydroxylation of a proline residue in the peptide with the PHD2 enzyme was utilized. To be more specific, [^14C]-2-oxogiutarate was added to the reaction system to initiate an enzymatic reaction and the [^14C]-2-oxoglutarate remaining after the reaction was bound to 2,4-dinitrophenylhydrazine (DNPH), with the resulting precipitate being removed by passage through a filter. Subsequently, radiation counting was conducted on the resulting [^14C]-succinic acid.
A test compound, HIF-1αpeptide and [^14C]-2-oxoglutarate were preliminarily added onto 96-well plates and reaction was initiated by adding a human PHD2 enzyme solution (4 μg/well). After 15-min incubation at 37° C., a DNPH-containing quench solution was added and the mixture was allowed to stand at room temperature for 30 minutes. Thereafter, an excess of non-radiolabelled 2-oxoglutarate was added and the mixture was allowed to stand at room temperature for 60 minutes. The resulting precipitate was removed by passage through a filter and the radiation count on the [^14C]-succinic acid was quantified (with MicroBeta). Radiation counting was conducted for each well and the human PHD2 inhibitory activity of each test compound was calculated on the basis of the values for the substrate-free group and the test compound-free group.

inhibition at 1 µM (human PHD2 [1]) [%] | inhibition at 1 µM (human PHD2 [2]) [%] | IC50 (human PHD2 [1]) [nM] | Structure (SMILES)
87 | 54 |  | O=C(O)CNC(=O)C1=C(O)C2(CCCCC2)CN(Cc2ccc(-c3ccccc3)cc2)C1=O [Ex. 1-8]
93 | 88 |  | O=C(O)CNC(=O)C1=C(O)CC2(CCCC2)N(Cc2ccc(-c3ccccc3)cc2)C1=O [Ex. 1-9]
92 | 93 |  | O=C(O)CNC(=O)C1=C(O)CC2(CCOCC2)N(Cc2ccc(-c3ccccc3)cc2)C1=O [Ex. 1-10]
93 | 95 |  | O=C(O)CNC(=O)C1=C(O)C2(CCOCC2)CN(Cc2ccc(-c3ccccc3)cc2)C1=O [Ex. 1-11]
81 | 64 |  | O=C(O)CNC(=O)C1=C(O)C2(CCCC2)CN(Cc2ccc(-c3ccccc3)cc2)C1=O [Ex. 1-13]
36 | 21 |  | O=C(O)CNC(=O)C1=C(O)C2(CCCCCC2)CN(Cc2ccc(-c3ccccc3)cc2)C1=O [Ex. 1-14]
86 | 72 |  | O=C(O)CNC(=O)C1=C(O)C2(CCC2)CN(Cc2ccc(-c3ccccc3)cc2)C1=O [Ex. 1-15]
85 | 84 |  | CC1(C)CC(O)=C(C(=O)NCC(=O)O)C(=O)N1Cc1ccc(-c2ccccc2)cc1 [Ex. 1-17]
73 | 72 |  | O=C(O)CNC(=O)C1=C(O)CCN(Cc2ccccc2)C1=O [Ex. 1-21]
82 | 84 |  | O=C(O)CNC(=O)C1=C(O)CCN(Cc2ccc(Br)cc2)C1=O [Ex. 1-23]
84 | 74 |  | O=C(O)CNC(=O)C1=C(O)CCN(Cc2cccc(-c3ccccc3)c2)C1=O [Ex. 1-24]
76 | 72 |  | O=C(O)CNC(=O)C1=C(O)CCN(Cc2ccccc2-c2ccccc2)C1=O [Ex. 1-25]
89 | 75 |  | CC1(C)CN(Cc2ccc(-c3ccccc3)cc2)C(=O)C(C(=O)NCC(=O)O)=C1O [Ex. 1-27]
92 | 94 | 88 | O=C(O)CNC(=O)C1=C(O)CCN(Cc2ccc(Oc3ccccc3)cc2)C1=O [Ex. 1-28]
86 | 81 |  | O=C(O)CNC(=O)C1=C(O)CCN(Cc2ccc3ccccc3c2)C1=O [Ex. 1-29]
83 | 77 |  | O=C(O)CNC(=O)C1=C(O)CCN(CCCCCc2ccccc2)C1=O [Ex. 1-30]
89 | 89 |  | O=C(O)CNC(=O)C1=C(O)CCN(CCc2ccc(-c3ccccc3)cc2)C1=O [Ex. 1-31]
82 | 78 |  | O=C(O)CNC(=O)C1=C(O)CCN(Cc2ccc3cccnc3c2)C1=O [Ex. 1-32]
84 | 72 |  | O=C(O)CNC(=O)C1=C(O)CCN(Cc2cccc3ccccc23)C1=O [Ex. 1-33]
75 | 58 |  | O=C(O)CNC(=O)C1=C(O)CCN(CCc2ccccc2)C1=O [Ex. 1-34]
90 | 81 |  | O=C(O)CNC(=O)C1=C(O)CCN(Cc2ccc(-c3ccccn3)cc2)C1=O [Ex. 1-35]
85 | 83 |  | CC(C)(C)c1ccc(-c2ccc(CN3CCC(O)=C(C(=O)NCC(=O)O)C3=O)cc2)cc1 [Ex. 1-36]
89 | 87 |  | O=C(O)CNC(=O)C1=C(O)CCN(Cc2ccc(C3CCCCC3)cc2)C1=O [Ex. 1-37]
66 | 48 |  | O=C(O)CNC(=O)C1=C(O)CCN(c2ccccc2)C1=O [Ex. 1-38]
86 | 76 |  | O=C(O)CNC(=O)C1=C(O)CCN(c2cccc(Oc3ccccc3)c2)C1=O [Ex. 1-39]
91 | 79 |  | O=C(O)CNC(=O)C1=C(O)CCN(c2ccc(Oc3ccccc3)cc2)C1=O [Ex. 1-40]
90 | 89 |  | O=C(O)CNC(=O)C1=C(O)CCN(Cc2cnc(-c3ccccc3)nc2)C1=O [Ex. 1-41]
94 | 90 |  | O=C(O)CNC(=O)C1=C(O)CCN(Cc2ccc(Cc3ccccc3)cc2)C1=O [Ex. 1-42]

inhibition at 1 µM (human PHD2 [1]) [%] | inhibition at 1 µM (human PHD2 [2]) [%] | IC50 (human PHD2 [1]) [nM] | Structure (SMILES)
79 | 74 |  | O=C(O)CNC(=O)C1=C(O)CCN(Cc2cnc(C3CCCCC3)nc2)C1=O [Ex. 1-43]
91 | 87 |  | O=C(O)CNC(=O)C1=C(O)CCN(Cc2cnc(-c3ccccc3)s2)C1=O [Ex. 1-44]
88 | 82 |  | O=C(O)CNC(=O)C1=C(O)CCN(Cc2cc(-c3ccccc3)no2)C1=O [Ex. 1-45]
84 | 78 |  | O=C(O)CNC(=O)C1=C(O)CCN(Cc2ccc3c(c2)CCCC3)C1=O [Ex. 1-46]
79 | 67 |  | COc1ccc(CN2CCC(O)=C(C(=O)NCC(=O)O)C2=O)cc1 [Ex. 1-48]
55 | 55 |  | O=C(O)CNC(=O)C1=C(O)CC(c2ccccc2)N(Cc2ccccc2)C1=O (stereo not shown) [Ex. 1-49]
83 | 77 |  | O=C(O)CNC(=O)C1=C(O)CC(c2ccccc2)N(Cc2ccc(-c3ccccc3)cc2)C1=O (stereo not shown) [Ex. 1-50]
73 | 58 |  | O=C(O)CNC(=O)C1=C(O)[C@@H]2CCCC[C@@H]2N(Cc2ccc(-c3ccccc3)cc2)C1=O [Ex. 1-51]
78 | 58 |  | O=C(O)CNC(=O)C1=C(O)[C@@H]2CCCCC2N(Cc2ccc(-c3ccccc3)cc2)C1=O (stereo partly shown) [Ex. 1-52]
78 | 78 |  | CCc1ccc(CN2CCC(O)=C(C(=O)NCC(=O)O)C2=O)cc1 [Ex. 1-53]
71 | 60 |  | O=C(O)CNC(=O)C1=C(O)CCN(Cc2ccc(C(F)(F)F)cc2C(F)(F)F)C1=O [Ex. 1-54]
79 | 75 |  | CC(C)(C)c1ccc(CN2CCC(O)=C(C(=O)NCC(=O)O)C2=O)cc1 [Ex. 1-55]
83 | 58 |  | O=C(O)CNC(=O)C1=C(O)C(c2ccccc2)CN(Cc2ccc(-c3ccccc3)cc2)C1=O (stereo not shown) [Ex. 1-57]
54 | 41 |  | O=C(O)CNC(=O)C1=C(O)CCN(Cc2cc(C(F)(F)F)cc(C(F)(F)F)c2)C1=O [Ex. 1-59]
76 | 66 |  | Cc1ccc(CN2CCC(O)=C(C(=O)NCC(=O)O)C2=O)c(C)c1 [Ex. 1-60]
71 | 58 |  | COc1cccc(CN2CCC(O)=C(C(=O)NCC(=O)O)C2=O)c1 [Ex. 1-61]
68 | 65 |  | COc1ccc(CN2CCC(O)=C(C(=O)NCC(=O)O)C2=O)c(C)c1 [Ex. 1-62]
69 | 43 |  | O=C(O)CNC(=O)C1=C(O)CC2(CCCCC2)N(Cc2ccc(C(F)(F)F)cc2)C1=O [Ex. 1-63]
81 | 80 |  | O=C(O)CNC(=O)C1=C(O)C2(CCOCC2)CN(Cc2ccc(C(F)(F)F)cc2)C1=O [Ex. 1-64]
85 | 84 |  | CSc1ccc(CN2CCC(O)=C(C(=O)NCC(=O)O)C2=O)cc1 [Ex. 1-65]
77 | 80 |  | O=C(O)CNC(=O)C1=C(O)CCN(Cc2cccc(Cl)c2)C1=O [Ex. 1-66]
89 | 84 |  | O=C(O)CNC(=O)C1=C(O)CCN(Cc2ccc(Cl)c(Cl)c2)C1=O [Ex. 1-67]
66 | 67 |  | O=C(O)CNC(=O)C1=C(O)CCN(Cc2cccc(OC(F)(F)F)c2)C1=O [Ex. 1-68]
85 | 81 |  | CCOc1ccc(CN2CCC(O)=C(C(=O)NCC(=O)O)C2=O)cc1 [Ex. 1-71]
89 | 98 | 94 | O=C(O)CNC(=O)C1=C(O)CCN(Cc2ccc(Oc3ccccc3)nc2)C1=O [Ex. 1-72]
90 | 99 |  | O=C(O)CNC(=O)C1=C(O)CCN(Cc2ccc(-c3ccccc3)nc2)C1=O [Ex. 1-73]
86 | 80 |  | O=C(O)CNC(=O)C1=C(O)CCN(Cc2ccc(Cl)c(C(F)(F)F)c2)C1=O [Ex. 1-74]
